In patent US20040116451A1, “Method of treatment” (Pfizer Inc., priority 2002, published 2004):

System: men with lower urinary tract symptoms
Test: 12-Week double-blind study in men with lower urinary tract symptoms (IPSS and bladder diary)
Format: in vivo
Conditions: for improvement in IPSS irritative domain: subjects with baseline IPSS irritative domain score ≧β; for improvement in IPSS irritative domain / improvement in irritative LUTS (urgency, daytime micturition frequency, nocturia; bladder diary): controlled release formulation, 12 weeks; for improvement in irritative LUTS (urgency, daytime micturition frequency, nocturia; bladder diary): subjects with irritative LUTS at baseline, compared with placebo
Protocol: A 12-Week Study in men with lower urinary tract symptoms was undertaken in which the IPSS (International Prostate Symptom Score) was recorded at baseline during, and at the end of, double-blind treatment. The IPSS is composed of seven questions, each with potential responses of 0-5 on a Likert scale. These questions are grouped into two validated domains: the irritative domain (urgency, frequency and nocturia) and the obstructive domain (incomplete emptying, intermittency, weak stream and straining to begin). […] The average daily incidence of urgency, daytime micturition frequency and nocturia (the irritative symptoms) for each subject were derived from this diary. In this study, there were […] treatment groups: 6 mg fixed dose of 4-amino-6,7-dimethoxy-2-(5-methanesulfonamido-1,2,3,4-tetrahydroisoquinol-2-yl)-5-(2-pyridyl)quinazoline, 6 mg escalated to 12 mg at Week 4 of the compound, and placebo. Controlled release formulations according to International Application Publication No. WO 03/032956 were used in each case.

[1] = 12 mg dose escalation group (6 mg escalated to 12 mg at Week 4)

Compound: COc1cc2nc(N3CCc4c(cccc4NS(C)(=O)=O)C3)nc(N)c2c(-c2ccccn2)c1OC [4-amino-6,7-dimethoxy-2-(5-methanesulfonamido-1,2,3,4-tetrahydroisoquinol-2-yl)-5-(2-pyridyl)quinazoline]
- attenuation of irritative LUTS (overall study result, FIGS. 1 to 4) (12-week study in men with LUTS, controlled release formulations): clinically significant attenuation of irritative LUTS
- improvement in IPSS irritative domain (6 mg fixed dose group): improvement in this domain of the IPSS was similarly confirmed
- improvement in IPSS irritative domain [1]: improvement in this domain of the IPSS was similarly confirmed
- improvement in irritative LUTS (urgency, daytime micturition frequency, nocturia; bladder diary) (6 mg fixed dose group): improvement in these symptoms was confirmed
- improvement in irritative LUTS (urgency, daytime micturition frequency, nocturia; bladder diary) [1]: improvement in these symptoms was confirmed
